We go through 6 compounds from US8624079B2, “Knockin mouse with a disruption in a PXR gene expressing human PXR” (ITI Scotland Limited, priority 2007, dated 2014).

In data set [1] the test system is liver cells. Description: BrdU incorporation in liver (hepatic cell proliferation, S-phase labelling index). The format is in vivo, mouse. The following applies: wild-type and huCAR mice.
The test system of data set [2] is components of drug metabolism pathways. The settings on record: inducer of components of drug metabolism pathways; species in which it is known to act more potently; cited from earlier work.
The subject of data set [3] is Cyp2b10. Kind of data set: pentoxyresorufin-O-deethylation (PROD) and BROD activity assay in liver microsomes of treated mice. For orientation: Liver microsomes are a subcellular fraction often used to study metabolism.
The subject of data set [4] is Cyp3a11. Description: Cyp3a11 protein expression in liver microsomes of treated mice by SDS-PAGE and Western blotting. The settings on record: for Cyp3a11 expression in liver (Western blot): single injection 0, 1, 10, 50 mg/kg, 48 hours. The procedure: (§1) Dosing solutions were prepared on the day of administration by adding corn oil to the requisite quantity of test substance and stirring to obtain a solution or fine suspension. The concentration of PCN was 10 mg/ml and Rif 2.5 mg/ml of supplied chemical, without any correction for purity. Records of preparation were retained.
The volume of vehicle and solutions of inducing agents administered was 10 ml/kg bodyweight. This route of administration was chosen for consistency with previously published work. […]
(§2) Quantification of Cyp3a11, Cyp2b10 and PXR protein in liver microsomes of all mice samples was carried out by SDS-PAGE and Western blotting. To detect murine and human PXR protein, an antibody (RF8) was employed. For the identification of Cyp3a and Cyp2b, […] were used, (CH32 and CH4, respectively).

Data set [5] relates to Cyp2b10. Description: Cyp2b10 protein expression of treated mice by SDS-PAGE and Western blotting. The following applies: for Cyp2b10 induction (Western blot and PROD activity): CITCO 10 mg/kg; for Cyp2b10 induction profile (Western blot and PROD, liver microsomes): wild-type vs huCAR mice, increasing amounts. The procedure:
as §1
Control animals were administered vehicle (corn oil) daily by intraperitoneal injection. The volume of vehicle and solutions of inducing agents administered was 10 ml/kg bodyweight. This route of administration was chosen for consistency with previously published work. […]
as §2
On the technique in general: Immunoblotting shows a protein as a band on a membrane.

The test system of data set [6] is Cyp3a11. The settings on record: wild-type mice (Ma et al. 2007); cited from earlier work.
Data set [7] relates to cytochrome P450 enzymes. The following applies: single ip; for induction of testosterone 16-beta-hydroxylation: 1 mg/kg. The procedure:
The study consisted of 3 animals per group. Control groups consisted of mice treated with either corn oil daily for 4 days or mice administered a single injection of corn oil. The treated mice were dosed with inducing agents as detailed in Table 3.1.
PXR activity was determined by measuring the metabolism of a number of cytochrome P450 substrates which are metabolised to different extents by different cytochrome P450 enzymes. The following assays were performed: • 7-benzyloxyquinoline (BQ) activity was determined in liver microsomes. • Testosterone hydroxylase activity was determined in liver microsomes (LMS HPLC-006). • The specific activities of these reactions was expressed per mg protein as determined using the Lowry assay (LMS Spec-0001).

How the values of data set [8] were obtained:
For the same animals, plasma levels of alanine aminotransferase (ALT), alkaline phosphatase (ALP) and aspartate aminotransferase (AST) were also measured (see FIG. 40). […] Both compounds were administered at 40 mg/kg.
Plasma levels of alanine aminotransferase (ALT), alkaline phosphatase (ALP) and aspartate aminotransferase (AST) were also measured (see FIG. 46).

Data set [9] can be described thus: Pentobarbitone sleeping test. The format is in vivo, mouse. The following applies: single ip dose 25 mg/kg. The procedure: In this experiment, the activity of these transcription factors in combination was determined by measuring the barbiturate induced sleeping time. Sleeping time has been known for many years to be directly proportional to the hepatic cytochrome P450 activity and this activity can be at least in part ascribed to the P450 levels in the liver determined by CAR and PXR function.
Mice were given a single intraperitoneal dose of Narcoren (sodium pentobarbitone; purchased via a Veterinary Consultant; distributed by Merial GmbH, Germany) at 25 mg/kg of body weight. The time taken for the mice to lose, and subsequently to regain, their righting reflex was measured.

Where [10] appears, read: wild type mice, TCPOBOP 1 mg/kg.

Entries after “also recorded” stand apart in the source; their conditions may differ. Like-named read-outs stand apart in the source and are kept apart here.

Take `Clc1ccc(-c2nc3sccn3c2C=NOCc2ccc(Cl)c(Cl)c2)cc1` [CITCO, 6-(4-chlorophenyl)imidazo[2,1-b][1,3]thiazole-5-carbaldehyde O-(3,4-dichlorobenzyl)oxime]: in data set [1] (20 mg/kg 4 times daily, one day after final dose), the “fraction of BrdU positive cells in the liver” value is “elevated counts of BrdU positive liver cells only in huCAR animals, not in the wild-type”. For the same compound, the “More potent in:” value in data set [2] is “human”. Further, the PROD activity entry in data set [3] (huCAR mice, increasing amounts of CITCO) is on record as “marked, dose-dependent induction of PROD activity”. Also, the “Cyp3a11 expression in liver (Western blot)” value in data set [4] (huCAR mice) is “clearly induced”; in [4] (wild type mice), “did not induce”. The “Cyp2b10 induction (Western blot and PROD activity)” value in [5] (huCAR mice) is listed as “strong induction”; in [5] (koPXR mice), “Some induction”; in data set [5] (wild-type mice), “not substantially induced”. Besides, the “Cyp2b10 expression in liver (Western blot)” value is “clearly induced” in data set [5] (huCAR mice, single injection 0, 1, 10, 50 mg/kg, 48 hours) and “did not induce” in data set [5] (wild type mice, single injection 0, 1, 10, 50 mg/kg, 48 hours). Moreover, the “Cyp2b10 induction profile (Western blot and PROD, liver microsomes)” value in data set [5] is listed as “stronger response in huCAR than in the wild-type”.

With `Clc1ccccc1C(c1ccccc1)(c1ccccc1)n1ccnc1` [Clotrimazole], in [2], the “More potent in:” value was “mouse”.

With `CC(=O)[C@H]1[C@H](C#N)C[C@H]2[C@@H]3CC=C4C[C@@H](O)CC[C@]4(C)[C@H]3CC[C@@]21C` [PCN, 5-Pregnen-3β-ol-20-one-16α-carbonitrile], the “More potent in:” value in data set [2] is reported as “mouse”. In addition, in data set [6], the “induction of Cyp3a11 mRNA” value was “strongly induced”.

On to `Clc1cnc(Oc2ccc(Oc3ncc(Cl)cc3Cl)cc2)c(Cl)c1` [TCPOBOP], for which the “fraction of BrdU positive cells in the liver” value in data set [1] (single dose 3 mg/kg, one day after dose) was “elevated counts of BrdU positive liver cells only in wild-type animals”. Further, the “induction of testosterone 16-beta-hydroxylation” value in data set [7] (huPXR mice) is 1.7 fold; in data set [7] (wild type mice) it was “approximately 6 fold”. The “induction of 6-beta-hydroxylation of testosterone” value in data set [7] (wild type and huPXR mice, TCPOBOP 0.3 and 1 mg/kg) is given as “inducible in both strains of mouse”. Besides, the “induction of testosterone 16-alpha-hydroxylation” value in data set [7] (wild type mice, TCPOBOP 0.3 and 1 mg/kg) is listed as “significantly induced”. The “More potent in:” value in data set [2] is “mouse”. Also, in [4] (setting [10]), the “Cyp3a11 expression (Western blot and BQ activity)” value was “somewhat induced”. For the same compound, the “Cyp2b10 expression (Western blot and PROD activity)” value in data set [5] (huCAR mice, TCPOBOP 1 mg/kg) is on record as “did not significantly induce”; in [5] (setting [10]), “induced; also recorded: strongly induced”. The “Cyp2b10 induction in liver (Western blot, densitometry)” value in [5] (koCAR mice, 1 mg/kg) is given as “no Cyp2b10 was induced”. For the same compound, the “Cyp2b10 protein expression and PROD activity” value in [5] (koPXR mice, TCPOBOP 1 mg/kg) was “comparable to wild type”. In [5], the “Cyp2b10 induction profile (Western blot and PROD, liver microsomes)” value was “more strongly in the wild-type than huCAR mice”.

For `C[C@@H]1C[C@H]2[C@@H]3CCC4=CC(=O)C=C[C@]4(C)[C@@]3(F)[C@@H](O)C[C@]2(C)[C@@]1(O)C(=O)CO` [dexamethasone], the “Cyp2b10 induction (PROD activity), comparison” value in data set [3] (huCAR vs wild type mice, 10 mg/kg) is on record as “weaker in huCAR than in wild type mice”. Also, the PROD activity entry in data set [3] (koCAR mice, 40 mg/kg) was “still induced”. The PROD activity result in [3] (wild-type, huPXR and koPXR mice, 60 mg/kg) is “corresponding results were obtained”. Further, in data set [5] (mouse, in vivo, 10 mg/kg), the Cyp2b10 expression entry is “induced Cyp2b10 expression in both wild-type and huCAR mice”; the “Cyp2b10 induction (Western blot), comparison” value is “less pronounced in huCAR than in wild-type mice”. For the same compound, the “Cyp2b10 expression in liver (Western blot)” value in data set [5] (mouse, in vivo, 40 mg/kg) is reported as “still induced”. Further, the “induction of Cyp2b10 (Western blot)” value in data set [5] (mouse, in vivo, 60 mg/kg) is listed as “induced”. Also, the mortality entry in [8] (huPXR mice, dexamethasone 60 mg/kg) was “One dexamethasone-treated huPXR mouse died”. Further, the “increase in plasma ALT levels and liver weights” value in data set [8] (mouse, in vivo, 30 mg/kg) is “clearly more pronounced in mice lacking murine PXR”.

In the case of `CCCC(C)C1(CC)C(=O)NC(=O)NC1=O` (stereo not shown) [pentobarbitone, sodium pentobarbitone], the “Sleeping time” value in [9] (PXR/CAR hum (double humanised) male mouse) came to 34 min; in data set [9] (wt male mouse), 21 min.
